Test results taken from patent US7645603B2, “Cells having cardiac glycoside resistance” (Avaris AB, priority 2003, dated 2010).

Key:
HeLa cells [1] = experiment: Ouabain toxicity assay, transiently transfected HeLa cells, cell viability; assay type: cell-based, human; settings: 10 μM ouabain
Description: HeLa cells (ATCC, Manassas, Va.) were cultured in DMEM Glutamax with 10% heat-inactivated fetal bovine serum (FBS). For transfections, Fugene 6 reagent (Roche Boehringer Mannheim, Germany) was used according to manufacturer's description. Briefly, 2 μg of plasmid DNA per 10^5 cells were complexed with 5 μl of the reagent in a 100 μl volume of cell culture medium and added to cells after 15 min of incubation. After 24 h, ouabain was added to each well to a final concentration of 10 μM. Cell viability was documented following 24 h incubation.
(§1) For transfections, Fugene 6 reagent (Roche Boeringer Mannheim, Germany) was used according to the manufacturer's instructions. Briefly, 2 μg of plasmid DNA per 10^5 cells were complexed with 5 μl of the reagent in a 100 μl volume of cell culture medium DMEM Glutamax and added to cells after 15 min of incubation. Ouabain (Sigma, St. Louis, Mo., USA) was dissolved in DMEM as a stock solution of 10 mM. For selection experiments 10-500 μM was used. Ouabain was added to the cells at 24 h after transfection. At 48 hours post transfection the cells were trypsinized and transferred to ouabain-free medium. Cell survival was quantified spectrophoto-metrically using the WST-1 cell proliferation reagent (Roche) according to the manufacturer's instructions.

COS-7 cells = experiment: Ouabain toxicity assay, transiently transfected COS-7 cells, cell viability; assay type: cell-based; settings: wild type COS-7, 10 μM ouabain
Description: COS-7 cells (ATCC, Manassas, Va.) were cultured and transfected as above. After 48 h incubation in 10 μM ouabain, the cells were washed twice in PBS (Gibco) and incubated for 15 min in 0.025% porcine trypsine in saline (Sigma). The trypsin was inactivated by FBS addition. The cells were re-incubated in 10 μM ouabain. Cell viability was documented following 48 h incubation.

HeLa cells [2] = experiment: Ouabain dose response assay in transfected HeLa cells, WST-1 cell proliferation reagent; assay type: cell-based, human; settings: 10-500 μM ouabain, 24 hours
Description: as §1

For `C[C@@H]1O[C@@H](O[C@H]2C[C@@H](O)[C@]3(CO)[C@H]4[C@H](O)C[C@]5(C)[C@@H](C6=CC(=O)OC6)CC[C@]5(O)[C@@H]4CC[C@]3(O)C2)[C@H](O)[C@H](O)[C@H]1O` [ouabain], which “ouabain induced cell death of wild type cells” value (HeLa cells [1]) is on record?
Its value is “induces cell death”.

What about the “ouabain induced cell death of wild type cells” value (COS-7 cells) of the same molecule?
The value was “induces cell death”.

What about the “effect of ouabain on control and un-transfected cells (WST-1)” value (HeLa cells [2]) of the same molecule?
The value was “eliminated”.
